The subject of one test is Human iPS cells. As to the kind of experiment: Micronucleation induction in human iPS cells, microscopic observation. It counts as cell-based. The settings on record: 48 hours, MAS 0.2 μg/mL compared to colcemid 0.25 μg/mL, paclitaxel 20-400 nM, reversine 0-1500 nM added. The procedure: Human iPS cells were seeded to a 6-well plate previously coated with 0.5 μg/cm^2 Laminin™-511 (Nippi. Inc.) at a density of 5×10^5 cells per well, and 10 μM Y-27632 was added. The human iPS cells were incubated at 37° C. in the condition of 5% CO2 for 24 hours. For a micronucleation induction experiment, 22 conditions in total were designed based on treatments with colcemid 0.25 μg/mL, MAS 0.2 μg/mL or paclitaxel (20 nM, 40 nM, 60 nM, 100 nM, 400 nM) with the addition of reversine (no addition, 500 nM, 1000 nM, 1500 nM) during the treatments, and the cells were cultured at 37° C. in the condition of 5% CO2 for 48 hours.
After micronucleation induction, the micronucleation induction rates were compared based on microscopic observation.

For another test, the system named is CHO MHG#4a cells. The test can be described thus: Micronucleation induction in CHO cells, fluorescence-microscopic observation. It counts as cell-based, Chinese hamster. The note with it: 72 hours, paclitaxel 0-1920 nM, reversine 0-12288 nM. The procedure: Ninety six conditions, which were designed by combinations of paclitaxel (0 nM, 96 nM, 192 nM, 384 nM, 768 nM, 1152 nM, 1536 nM, 1920 nM) and reversine (0 nM, 192 nM, 384 nM, 768 nM, 1536 nM, 3072 nM, 4608 nM, 6144 nM, 7680 nM, 9216 nM, 10752 nM, 12288 nM), were assigned to the wells. Culture was carried out at 37° C. in the condition of 5% CO2 for 72 hours.
After micronucleation induction, the micronucleation induction rates were compared based on observation by fluorescence microscopy.

Test [1] deals with Human immortalized mesenchymal stem cells (hiMSC). The test can be described thus: Micronucleation induction in human immortalized mesenchymal stem cells, DAPI staining. It counts as cell-based. The settings on record: 48 hours. How it is done: Human immortalized mesenchymal stem cells (hiMSC: provided by Dr. Toguchida, Kyoto University) were seeded in individual wells of a 6-well plate at a density of 5×10^5 cells per well and cultured at 37° C. in the condition of 5% CO2 for 24 hours. For the micro nucleation induction experiment, 26 conditions in total were designed based on treatments with colcemid (0.05 μg/mL, 0.1 μg/mL, 0.2 μg/mL), MAS (0.1 μg/mL, 0.2 μg/mL, 0.4 μg/mL) and paclitaxel (0.8 nM, 4 nM, 20 nM, 100 nM, 400 nM), with the addition of reversine (no addition, 500 nM, 1000 nM, 1500 nM) during the treatments, and the cells were cultured at 37° C. in the condition of 5% CO2 for 48 hours.
In order to observe living cells after micronucleation induction, the cells were fixed with 4% paraformaldehyde and stained with DAPI (concentration: 1 μg/mL) for 15 minutes. The fixed cells were observed by fluorescence microscopy and the micronuclear formation induction rates were compared. Whether or not micronuclei were formed in individual cells was observed and the results are shown in a figure (FIG. 2).

The structures appear in SMILES notation.

Regarding `CC(=O)O[C@H]1C(=O)[C@@]2(C)[C@H]([C@H](OC(=O)c3ccccc3)[C@]3(O)C[C@H](OC(=O)[C@H](O)[C@@H](NC(=O)c4ccccc4)c4ccccc4)C(C)=C1C3(C)C)[C@]1(OC(C)=O)CO[C@@H]1C[C@@H]2O` [paclitaxel], the micronucleation induction rate entry in the test on Human iPS cells is on record as “micronucleation rate increases in a concentration dependent manner”. Moreover, the micronucleation rate entry in the test with CHO MHG#4a cells is “micronucleation rate increases in a concentration dependent manner”. Moreover, the “micronucleation induction, usefulness of agent” value in test [1] is on record as “effective”.
For `c1nc2nc(Nc3ccc(N4CCOCC4)cc3)nc(NC3CCCCC3)c2[nH]1` [reversine], in the test with Human iPS cells, the micronucleation induction rate result is “useful”. Further, the micronucleation rate entry in the test on CHO MHG#4a cells is recorded as “micronucleation rate increases in a concentration dependent manner”. Further, the “micronucleation induction, usefulness of agent” value in test [1] was “useful”.

For the origin of these results see patent publication US20210163896A1, “METHOD FOR PRODUCING ANIMAL CELL CONTAINING DNA OF INTEREST USING MICRONUCLEATE CELL FUSION METHOD” (NATIONAL UNIVERSITY CORPORATION TOTTORI UNIVERSITY, priority 2018, published 2021).
